Experimental data taken from the supplement of paper PMC13386468.
pIC50: −log10 of the molar value.

Legend:
Assay in all cases: IC50 for competition of protein binding to Kinobeads
Conditions in all cases: assay detail: Kinobeads competition in P. falciparum blood-stage lysate
UniProt Q8IIB4 = molecular target: UniProt Q8IIB4
UniProt Q8I487 = molecular target: UniProt Q8I487
UniProt Q8I3T5 = molecular target: UniProt Q8I3T5
UniProt Q8I274 = molecular target: UniProt Q8I274
UniProt Q7K6B0 = molecular target: UniProt Q7K6B0
UniProt Q8IEK3 = molecular target: UniProt Q8IEK3
UniProt Q8IIR9 = molecular target: UniProt Q8IIR9
UniProt Q8IDW1 = molecular target: UniProt Q8IDW1
UniProt Q76NN8 = molecular target: UniProt Q76NN8
UniProt Q8I5D5 = molecular target: UniProt Q8I5D5
UniProt Q8ILS7 = molecular target: UniProt Q8ILS7
UniProt Q8I348 = molecular target: UniProt Q8I348
UniProt Q8II24 = molecular target: UniProt Q8II24
UniProt Q8IJS7 = molecular target: UniProt Q8IJS7
UniProt Q8IBT7 = molecular target: UniProt Q8IBT7
UniProt Q8IDY6 = molecular target: UniProt Q8IDY6
UniProt Q8IDR9 = molecular target: UniProt Q8IDR9
UniProt Q7KQJ9 = molecular target: UniProt Q7KQJ9
Chain of UniProt Q7KQJ9 (Q7KQJ9 whole entry): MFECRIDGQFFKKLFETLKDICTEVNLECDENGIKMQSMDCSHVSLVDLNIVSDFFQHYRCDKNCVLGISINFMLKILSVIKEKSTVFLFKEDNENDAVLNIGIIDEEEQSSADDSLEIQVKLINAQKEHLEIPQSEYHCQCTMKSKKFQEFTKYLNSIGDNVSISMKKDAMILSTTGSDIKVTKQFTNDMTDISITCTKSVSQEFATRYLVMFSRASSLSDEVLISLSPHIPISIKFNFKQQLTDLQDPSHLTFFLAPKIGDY

UniProt Q8I2P2 = molecular target: UniProt Q8I2P2
UniProt O77358 = molecular target: UniProt O77358
UniProt Q8IES0 = molecular target: UniProt Q8IES0
UniProt Q8I635 = molecular target: UniProt Q8I635
UniProt Q8IDZ6 = molecular target: UniProt Q8IDZ6
UniProt Q8I2S6 = molecular target: UniProt Q8I2S6
UniProt Q8I562 = molecular target: UniProt Q8I562
UniProt Q8IIW6 = molecular target: UniProt Q8IIW6
UniProt Q8I2X0 = molecular target: UniProt Q8I2X0
UniProt Q8IK92 = molecular target: UniProt Q8IK92
UniProt Q8IKS6 = molecular target: UniProt Q8IKS6
UniProt Q8IDR5 = molecular target: UniProt Q8IDR5
UniProt O96271 = molecular target: UniProt O96271
UniProt Q8IJS1 = molecular target: UniProt Q8IJS1
UniProt C0H4V6 = molecular target: UniProt C0H4V6
Chain of UniProt C0H4V6 (C0H4V6 whole entry): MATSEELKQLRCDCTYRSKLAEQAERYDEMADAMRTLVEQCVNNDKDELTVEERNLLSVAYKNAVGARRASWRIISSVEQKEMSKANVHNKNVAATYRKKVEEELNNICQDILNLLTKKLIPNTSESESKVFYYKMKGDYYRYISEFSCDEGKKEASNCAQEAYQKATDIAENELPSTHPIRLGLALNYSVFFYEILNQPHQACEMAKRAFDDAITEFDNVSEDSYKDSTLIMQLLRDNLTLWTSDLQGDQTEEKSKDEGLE

UniProt Q8IB66 = molecular target: UniProt Q8IB66
UniProt O96217 = molecular target: UniProt O96217
UniProt Q8IAK9 = molecular target: UniProt Q8IAK9
UniProt Q8I328 = molecular target: UniProt Q8I328
UniProt Q8IDN6 = molecular target: UniProt Q8IDN6
UniProt Q8I1T4 = molecular target: UniProt Q8I1T4
UniProt Q8I1P3 = molecular target: UniProt Q8I1P3
UniProt Q8I527 = molecular target: UniProt Q8I527
UniProt Q8IDJ4 = molecular target: UniProt Q8IDJ4
UniProt Q8ILB6 = molecular target: UniProt Q8ILB6
UniProt Q8IDV1 = molecular target: UniProt Q8IDV1
UniProt C0H4P4 = molecular target: UniProt C0H4P4
UniProt Q8IHR8 = molecular target: UniProt Q8IHR8
UniProt Q8IAW7 = molecular target: UniProt Q8IAW7
UniProt Q8ILE8 = molecular target: UniProt Q8ILE8
UniProt Q76NN6 = molecular target: UniProt Q76NN6
UniProt O77376 = molecular target: UniProt O77376
UniProt Q8I3J0 = molecular target: UniProt Q8I3J0
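Note: native unpurified kinases from lysate captured on beads bearing immobilized kinase inhibitors, with bead-bound kinases quantified by mass spectrometry across compound doses.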

Question: With O=c1[nH]c2ccc(Cl)cc2c(NC2CN3CCC2CC3)c1-c1nc2ccccc2[nH]1 (stereo unspecified) [CHIR-124] as the compound, how does the pIC50 (UniProt Q8IIB4) read?
Answer: The pIC50 was less than 4.70.

Question: And the pIC50 (UniProt Q8I487)?
Answer: The pIC50 was less than 4.70.

Question: And the pIC50 (UniProt Q8I3T5)?
Answer: The pIC50 was less than 4.70.

Question: And the pIC50 (UniProt Q8I274)?
Answer: The pIC50 was less than 4.70.

Question: What about the pIC50 (UniProt Q7K6B0) of the same compound?
Answer: The pIC50 was less than 4.70.

Question: What about the pIC50 (UniProt Q8IEK3) of the same compound?
Answer: The pIC50 was less than 4.70.

Question: And the pIC50 (UniProt Q8IIR9)?
Answer: The pIC50 was less than 4.70.

Question: What about the pIC50 (UniProt Q8IDW1) of the same compound?
Answer: Its pIC50 is less than 4.70.

Question: What about the pIC50 (UniProt Q76NN8) of the same compound?
Answer: The pIC50 was less than 4.70.

Question: And the pIC50 (UniProt Q8I5D5)?
Answer: Its pIC50 is less than 4.70.

Question: What about the pIC50 (UniProt Q8ILS7) of the same compound?
Answer: The pIC50 was less than 4.70.

Question: What about the pIC50 (UniProt Q8I348) of the same compound?
Answer: The pIC50 was less than 4.70.

Question: What about the pIC50 (UniProt Q8II24) of the same compound?
Answer: Its pIC50 is less than 4.70.

Question: What about the pIC50 (UniProt Q8IJS7) of the same compound?
Answer: Its pIC50 is less than 4.70.

Question: And the pIC50 (UniProt Q8IBT7)?
Answer: The pIC50 was less than 4.70.

Question: And the pIC50 (UniProt Q8IDY6)?
Answer: The pIC50 was less than 4.70.

Question: And the pIC50 (UniProt Q8IDR9)?
Answer: The pIC50 was less than 4.70.

Question: What about the pIC50 (UniProt Q7KQJ9) of the same compound?
Answer: The pIC50 was less than 4.70.

Question: And the pIC50 (UniProt Q8I2P2)?
Answer: Its pIC50 is less than 4.70.

Question: What about the pIC50 (UniProt O77358) of the same compound?
Answer: The pIC50 was less than 4.70.

Question: And the pIC50 (UniProt Q8IES0)?
Answer: The pIC50 was less than 4.70.

Question: What about the pIC50 (UniProt Q8I635) of the same compound?
Answer: The pIC50 was less than 4.70.

Question: What about the pIC50 (UniProt Q8IDZ6) of the same compound?
Answer: Its pIC50 is less than 4.70.

Question: What about the pIC50 (UniProt Q8I2S6) of the same compound?
Answer: Its pIC50 is less than 4.70.

Question: What about the pIC50 (UniProt Q8I562) of the same compound?
Answer: Its pIC50 is less than 4.70.

Question: And the pIC50 (UniProt Q8IIW6)?
Answer: The pIC50 was 6.60.

Question: What about the pIC50 (UniProt Q8I2X0) of the same compound?
Answer: The pIC50 was less than 4.70.

Question: And the pIC50 (UniProt Q8IK92)?
Answer: The pIC50 was less than 4.70.

Question: And the pIC50 (UniProt Q8IKS6)?
Answer: The pIC50 was less than 4.70.

Question: And the pIC50 (UniProt Q8IDR5)?
Answer: Its pIC50 is less than 4.70.

Question: And the pIC50 (UniProt O96271)?
Answer: The pIC50 was less than 4.70.

Question: And the pIC50 (UniProt Q8IJS1)?
Answer: Its pIC50 is less than 4.70.

Question: What about the pIC50 (UniProt C0H4V6) of the same compound?
Answer: Its pIC50 is less than 4.70.

Question: What about the pIC50 (UniProt Q8IB66) of the same compound?
Answer: Its pIC50 is less than 4.70.

Question: And the pIC50 (UniProt O96217)?
Answer: The pIC50 was less than 4.70.

Question: What about the pIC50 (UniProt Q8IAK9) of the same compound?
Answer: The pIC50 was less than 4.70.

Question: What about the pIC50 (UniProt Q8I328) of the same compound?
Answer: Its pIC50 is less than 4.70.

Question: And the pIC50 (UniProt Q8IDN6)?
Answer: Its pIC50 is less than 4.70.

Question: What about the pIC50 (UniProt Q8I1T4) of the same compound?
Answer: The pIC50 was less than 4.70.

Question: And the pIC50 (UniProt Q8I1P3)?
Answer: The pIC50 was less than 4.70.

Question: And the pIC50 (UniProt Q8I527)?
Answer: Its pIC50 is less than 4.70.

Question: And the pIC50 (UniProt Q8IDJ4)?
Answer: The pIC50 was less than 4.70.

Question: And the pIC50 (UniProt Q8ILB6)?
Answer: Its pIC50 is less than 4.70.

Question: What about the pIC50 (UniProt Q8IDV1) of the same compound?
Answer: The pIC50 was less than 4.70.

Question: What about the pIC50 (UniProt C0H4P4) of the same compound?
Answer: The pIC50 was less than 4.70.

Question: And the pIC50 (UniProt Q8IHR8)?
Answer: The pIC50 was less than 4.70.

Question: What about the pIC50 (UniProt Q8IAW7) of the same compound?
Answer: Its pIC50 is less than 4.70.

Question: And the pIC50 (UniProt Q8ILE8)?
Answer: Its pIC50 is less than 4.70.

Question: What about the pIC50 (UniProt Q76NN6) of the same compound?
Answer: The pIC50 was less than 4.70.

Question: And the pIC50 (UniProt O77376)?
Answer: Its pIC50 is less than 4.70.

Question: What about the pIC50 (UniProt Q8I3J0) of the same compound?
Answer: Its pIC50 is less than 4.70.
